Columns and labels:
[1] = tested on: HBV replication in HepAD38 cells; test: Anti-HBV replication assay in HepAD38 cells (QPCR of extracellular HBV DNA); format: cell-based, HBV (genotype D, serotype ayw); settings: Hepatitis B virus, 168 h, 7 days incubation, extracellular HBV DNA by QPCR, read-out: Anti-HBV EC50
In short: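 Compounds (1 log10 serial dilutions, […]) were left 7 days on tetracycline-free HepAD38 cultures, a HepG2 line with tet-controlled HBV genotype D. EC50 came from 4-parameter regression of percent inhibition versus vehicle, using supernatant HBV DNA copies/mL measured by QPCR.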

[2] = In vitro cytotoxicity assay (MTT cell viability) in HepG2 cells; format: cell-based, human; settings: human
In short: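 Read-out: MTT formazan absorbance at 492 nm, expressed as % of vehicle signal; CC50 by 4-parameter non-linear regression. Parental HepG2, 20,000 cells/well, treated 7 days with compound from 30 μM down to 1.0 nM.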

Compound | EC50 [1] [nM] | CC50 at 7 days [2] [nM]
Cc1cc(NC(=O)c2c(C)c(C(=O)C(=O)NC(C)(C)C(F)(F)F)n(C)c2C)cnc1F [Example 173, N-(6-fluoro-5-methylpyridin-3-yl)-1,2,4-trimethyl-5-(2-oxo-2-((1,1,1-trifluoro-2-methylpropan-2-yl)amino)acetyl)-1H-pyrrole-3-carboxamide] | < 50 | > 30000
Cc1cc(NC(=O)c2c(C)c(C(=O)C(=O)N[C@H]3CC[C@@H](O)CC3)n(C)c2C)cnc1F [Example 174, N-(6-fluoro-5-methylpyridin-3-yl)-5-(2-(((1s,4s)-4-hydroxycyclohexyl)amino)-2-oxoacetyl)-1,2,4-trimethyl-1H-pyrrole-3-carboxamide] | 50 to 499 | > 30000
Cc1cc(NC(=O)c2c(C)c(C(=O)C(=O)N[C@H]3CC[C@H](O)CC3)n(C)c2C)cnc1F [Example 175, N-(6-fluoro-5-methylpyridin-3-yl)-5-(2-(((1r,4r)-4-hydroxycyclohexyl)amino)-2-oxoacetyl)-1,2,4-trimethyl-1H-pyrrole-3-carboxamide] | 50 to 499 | > 30000
Cc1cc(NC(=O)c2c(C)c(C(=O)C(=O)N[C@@H]3CC[C@@H](O)C3)n(C)c2C)cnc1F [Example 176, N-(6-fluoro-5-methylpyridin-3-yl)-5-(2-(((1R,3R)-3-hydroxycyclopentyl)amino)-2-oxoacetyl)-1,2,4-trimethyl-1H-pyrrole-3-carboxamide] | 50 to 499 | > 30000
Cc1cc(NC(=O)c2c(C)c(C(=O)C(=O)N[C@H](CO)[C@@H](C)O)n(CCF)c2C)ccc1F [Example 177, 5-(2-(((2R,3R)-1,3-dihydroxybutan-2-yl)amino)-2-oxoacetyl)-N-(4-fluoro-3-methylphenyl)-1-(2-fluoroethyl)-2,4-dimethyl-1H-pyrrole-3-carboxamide] | 50 to 499 | 5000 to 30000
Cc1cc(NC(=O)c2c(C)c(C(=O)C(=O)NCC(C)(C)O)n(CCF)c2C)ccc1F [Example 178, N-(4-fluoro-3-methylphenyl)-1-(2-fluoroethyl)-5-(2-((2-hydroxy-2-methylpropyl)amino)-2-oxoacetyl)-2,4-dimethyl-1H-pyrrole-3-carboxamide] | 50 to 499 | 5000 to 30000
Cc1cc(NC(=O)c2c(C)c(C(=O)C(=O)NC3(CO)CC(F)(F)C3)n(CCF)c2C)ccc1F [Example 179, 5-(2-((3,3-difluoro-1-(hydroxymethyl)cyclobutyl)amino)-2-oxoacetyl)-N-(4-fluoro-33-methylphenyl)-1-(2-fluoroethyl)-2,4-dimethyl-1H-pyrrole-3-carboxamide] | < 50 | 5000 to 30000
CC[C@@H](CO)NC(=O)C(=O)c1c(C)c(C(=O)Nc2ccc(F)c(C)c2)c(C)n1CCF [Example 180, (S)-N-(4-fluoro-3-methylphenyl)-1(2-fluoroethyl)-5-(2-((1-hydroxybutan-2-yl)amino)-2-oxoacetyl)-2,4-dimethyl-1H-pyrrole-3-carboxamide] | < 50 | 5000 to 30000
Cc1nnc(C(C)NC(=O)C(=O)c2c(C)c(C(=O)Nc3ccc(F)c(C)c3)c(C)n2C)o1 (stereo not shown) [Example 181, N-(4-fluoro-3-methylphenyl)-1,2,4-trimethyl-5-(2-((1-(5-methyl-1,3,4-oxadiazol-2-yl)ethyl)amino)-2-oxoacetyl)-1H-pyrrole-3-carboxamide] | < 50 | > 30000
Cc1nnc(C2(NC(=O)C(=O)c3c(C)c(C(=O)Nc4ccc(F)c(C)c4)c(C)n3C)CC2)o1 [Example 182, N-(4-fluoro-3-methylphenyl)-1,2,4-trimethyl-5-(2-((1-(5-methyl-1,3,4-oxadiazol-2-yl)cyclopropyl)amino)-2-oxoacetyl)-1H-pyrrole-3-carboxamide] | < 50 | > 30000
Cc1cc(NC(=O)c2c(C)c(C(=O)C(=O)NCC(C)(C)O)n(C)c2C)cnc1F [Example 183, N-(6-fluoro-5-methylpyridin-3-yl)-5-(2-((2-hydroxy-2-methylpropyl)amino)-2-oxoacetyl)-1,2,4-trimethyl-1H-pyrrole-3-carboxamide] | 500 to 1000 | > 30000
Cc1cc(NC(=O)c2c(C)c(C(=O)C(=O)NC3(CO)CC(F)(F)C3)n(C)c2C)cnc1F [Example 184, 5-(2-((3,3-difluoro-1-(hydroxymethyl)cyclobutyl)amino)-2-oxoacetyl)-N-(6-fluoro-5-methylpyridin-3-yl)-1,2,4-trimethyl-1H-pyrrole-3-carboxamide] | < 50 | > 30000
Cc1cc(NC(=O)c2c(C)c(C(=O)C(=O)N[C@H](CO)[C@@H](C)O)n(C)c2C)cnc1F [Example 185, 5-(2-(((2R,3R)-1,3-dihydroxybutan-2-yl)amino)-2-oxoacetyl)-N-(6-fluoro-5-methylpyridin-3-yl)-1,2,4-trimethyl-1H-pyrrole--3 carboxamide] | 500 to 1000 | > 30000
CC[C@@H](CO)NC(=O)C(=O)c1c(C)c(C(=O)Nc2cnc(F)c(C)c2)c(C)n1C [Example 186, (S)-N-(6-fluoro-5-methylpyridin-3-yl)-5-(2-((1-hydroxybutan-2-yl)amino)-2-oxoacetyl)-1,2,4-trimethyl-1H-pyrrole-3-carboxamide] | 50 to 499 | > 30000
Cc1cc(NC(=O)c2c(C)c(C(=O)C(=O)N[C@H]3CCOC[C@@H]3O)n(C)c2C)ccc1F [Example 187, N-(4-fluoro-3-methylphenyl)-5-(2-(((3R,4S)-3-hydroxytetrahydro-2H-pyran-4-yl)amino)-2-oxoacetyl)-1,2,4-trimethyl-1H-pyrrole-3-carboxamide] | > 1000 | > 30000
Cc1c(C(=O)Nc2ccnc(F)c2)c(C)n(C)c1C(=O)C(=O)NC12CC3CC(CC(O)(C3)C1)C2 [Example 188, N-(2-fluoropyridin-4-yl)-5-(2-(((1r,3s,5R,7S)-3-hydroxyadamantan-1-yl)amino)-2-oxoacetyl)-1,2,4-trimethyl-1H-pyrrole-3-carboxamide] | 50 to 499 | > 30000
Cc1c(C(=O)Nc2ccc(F)c(Cl)c2)c(C)n(C)c1C(=O)C(=O)NC(C)(C)CO [Example 189, N-(3-chloro-4-fluorophenyl)-5-(2-((1-hydroxy-2-methylpropan-2-yl)amino)-2-oxoacetyl)-1,2,4-trimethyl-1H-pyrrole-3-carboxamide] | < 50 | > 30000
Cc1c(C(=O)Nc2ccnc(Cl)c2)c(C)n(C)c1C(=O)C(=O)NC(C)(C)CO [Example 190, N-(2-chloropyridin-4-yl)-5-(2-((1-hydroxy-2-methylpropan-2-yl)amino)-2-oxoacetyl)-1,2,4-trimethyl-1H-pyrrole-3-carboxamide] | < 50 | > 30000
Cc1cc(NC(=O)c2c(C)c(C(=O)C(=O)NC3CCSCC3)n(C)c2C)cnc1F [Example 191, N-(6-fluoro-5-methylpyridin-3-yl)-1,2,4-trimethyl-5-(2-oxo-2-((tetrahydro-2H-thiopyran-4-yl)amino)acetyl)-1H-pyrrole-3-carboxamide] | < 50 | > 30000
Cc1cc(NC(=O)c2c(C)c(C(=O)C(=O)N3CCC(F)(F)C3)n(C)c2C)cnc1F [Example 192, 5-(2-(3,3-difluoropyrrolidin-1-yl)-2-oxoacetyl)-N-(6-fluoro-5-methylpyridin-3-yl)-1,2,4-trimethyl-1H-pyrrole-3-carboxamide] | 500 to 1000 | > 30000
Cc1cc(NC(=O)c2c(C)c(C(=O)C(=O)N3C4CCCC3CC(=O)C4)n(C)c2C)cnc1F [Example 193, N-(6-fluoro-5-methylpyridin-3-yl)-1,2,4-trimethyl-5-(2-oxo-2-(3-oxo-9-azabicyclo[3.3.1]nonan-9-yl)acetyl)-1H-pyrrole-3-carboxamide] | > 1000 | > 30000
Cc1cc(NC(=O)c2c(C)c(C(=O)C(=O)N[C@H]3CC[C@H](O)C3)n(CCF)c2C)ccc1F [Example 194, N-(4-fluoro-3-methylphenyl)-1-(2-fluoroethyl)-5-(2-(((1S,3S)-3-hydroxycyclopentyl)amino)-2-oxoacetyl)-2,4-dimethyl-1H-pyrrole-3-carboxamide] | 50 to 499 | > 30000
Cc1cc(NC(=O)c2c(C)c(C(=O)C(=O)N[C@@H]3CCC[C@H]3O)n(CCF)c2C)ccc1F [Example 195, N-(4-fluoro-3-methylphenyl)-1-(2-fluoroethyl)-5-(2-(((1R,2R)-2-hydroxycyclopentyl)amino)-2-oxoacetyl)-2,4-dimethyl-1H-pyrrole-3-carboxamide] | < 50 | > 30000
Cc1cc(NC(=O)c2c(C)c(C(=O)C(=O)N[C@@H]3CCOC[C@H]3O)n(CCF)c2C)ccc1F [Example 196, N-(4-fluoro-3-methylphenyl)-1-(2-fluoroethyl)-5-(2-(((3S,4R)-3-hydroxytetrahydro-2H-pyran-4-yl)amino)-2-oxoacetyl)-2,4-dimethyl-1H-pyrrole-3-carboxamide] | 50 to 499 | > 30000
Cc1cc(NC(=O)c2c(C)c(C(=O)C(=O)N[C@@H]3CC[C@@H](O)[C@@H]3O)n(CCF)c2C)ccc1F [Example 197] | 50 to 499 | > 30000
Cc1cc(NC(=O)c2c(C)c(C(=O)C(=O)N[C@H]3CC[C@H](O)CC3)n(CCF)c2C)ccc1F [Example 198, N-(4-fluoro-3-methylphenyl)-1-(2-fluoroethyl)-5-(2-(((1r,4r)-4-hydroxycyclohexyl)amino)-2-oxoacetyl)-2,4-dimethyl-1H-pyrrole-3-carboxamide] | 50 to 499 | > 30000

Reference: patent publication US20190375708A1 (VenatoRx Pharmaceuticals, Inc., priority 2018, published 2019)
